Values quoted from earlier work, collected in patent US20020187120A1, “Method for treating gout and reducing serum uric acid” (GelTex Pharmaceutical, Inc., priority 2001, published 2002).

Settings: administered orally

Structure (SMILES): COc1cc2c(c(OC)c1OC)-c1ccc(OC)c(=O)cc1[C@@H](NC(C)=O)CC2 [colchicine]
- people who cannot tolerate the drug because of side effects: 80%
